Assay results from PMC4522678, “Adaptation of the human aryl hydrocarbon receptor to sense microbiota-derived indoles” (Scientific Reports, 2015).

Key:
[1] = molecular target: T1, human aryl hydrocarbon receptor (AHR) (Homo sapiens, UniProt P35869); assay: gel shift (EMSA) of in vitro translated AHR/ARNT; HepG2 reporter; type: cell-based; parameters: in vitro translated human AHR; with ARNT
Target sequence in this assay (P35869 11-848): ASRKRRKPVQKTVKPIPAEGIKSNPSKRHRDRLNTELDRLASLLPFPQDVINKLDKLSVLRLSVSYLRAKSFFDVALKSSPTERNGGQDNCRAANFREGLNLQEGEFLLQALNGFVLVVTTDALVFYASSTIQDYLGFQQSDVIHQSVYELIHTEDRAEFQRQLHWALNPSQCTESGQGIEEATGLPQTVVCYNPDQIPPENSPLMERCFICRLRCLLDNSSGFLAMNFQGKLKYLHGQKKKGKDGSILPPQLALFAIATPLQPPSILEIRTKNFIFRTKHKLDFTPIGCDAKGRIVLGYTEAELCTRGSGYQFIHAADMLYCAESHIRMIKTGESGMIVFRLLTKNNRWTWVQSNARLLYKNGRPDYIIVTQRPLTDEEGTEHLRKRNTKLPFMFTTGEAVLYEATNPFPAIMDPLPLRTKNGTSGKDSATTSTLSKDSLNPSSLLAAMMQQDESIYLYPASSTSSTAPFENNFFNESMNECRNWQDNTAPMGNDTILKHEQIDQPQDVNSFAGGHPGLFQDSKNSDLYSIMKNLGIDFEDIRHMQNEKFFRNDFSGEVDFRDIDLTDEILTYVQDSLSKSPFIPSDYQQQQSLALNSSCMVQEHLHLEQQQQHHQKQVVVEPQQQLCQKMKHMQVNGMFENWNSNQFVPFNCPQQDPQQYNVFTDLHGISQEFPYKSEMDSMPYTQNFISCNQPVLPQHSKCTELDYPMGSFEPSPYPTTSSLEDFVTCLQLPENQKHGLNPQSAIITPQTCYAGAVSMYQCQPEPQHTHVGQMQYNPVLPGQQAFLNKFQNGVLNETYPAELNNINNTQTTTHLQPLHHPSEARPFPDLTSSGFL
Target sequence in this assay (P27540 2-789 partner): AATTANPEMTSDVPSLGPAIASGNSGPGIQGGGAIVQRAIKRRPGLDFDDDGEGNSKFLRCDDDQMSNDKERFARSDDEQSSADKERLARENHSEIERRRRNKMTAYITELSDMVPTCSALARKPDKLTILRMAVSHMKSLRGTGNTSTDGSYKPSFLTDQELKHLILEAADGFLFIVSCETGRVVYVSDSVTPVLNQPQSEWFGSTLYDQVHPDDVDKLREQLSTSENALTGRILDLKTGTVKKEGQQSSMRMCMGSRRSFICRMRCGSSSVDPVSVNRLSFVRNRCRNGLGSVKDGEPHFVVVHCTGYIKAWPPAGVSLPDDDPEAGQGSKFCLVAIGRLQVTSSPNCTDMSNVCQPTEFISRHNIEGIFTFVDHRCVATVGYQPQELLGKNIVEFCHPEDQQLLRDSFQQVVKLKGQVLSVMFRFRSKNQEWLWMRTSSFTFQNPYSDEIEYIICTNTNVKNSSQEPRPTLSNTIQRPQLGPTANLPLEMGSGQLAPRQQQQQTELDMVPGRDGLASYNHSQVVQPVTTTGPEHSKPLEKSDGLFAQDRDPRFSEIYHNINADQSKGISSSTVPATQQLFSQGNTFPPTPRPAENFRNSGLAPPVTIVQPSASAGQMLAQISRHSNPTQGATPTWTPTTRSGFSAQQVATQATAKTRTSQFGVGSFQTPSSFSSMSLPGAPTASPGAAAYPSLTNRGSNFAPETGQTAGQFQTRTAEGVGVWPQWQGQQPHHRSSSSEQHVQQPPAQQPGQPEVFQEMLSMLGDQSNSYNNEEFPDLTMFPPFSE

[2] = molecular target: T1, human aryl hydrocarbon receptor (AHR); assay: competition with radioiodinated photoaffinity ligand in hAHR liver cytosol; also gel shift with in vitro translated hAHR/ARNT; parameters: human AHR transgene expressed in mouse liver (hepatic cytosol)
Target sequence in this assay (P35869 11-848): as the sequence (P35869 11-848) above

chimpanzee AHR [3] = molecular target: T2, chimpanzee AHR (Pan troglodytes, UniProt K7AJA4); assay: gel shift (EMSA) of in vitro translated AHR/ARNT, […] indole; type: cell-based
T2 construct: in vitro translated chimpanzee AHR; with ARNT
T2 sequence (K7AJA4 1-850): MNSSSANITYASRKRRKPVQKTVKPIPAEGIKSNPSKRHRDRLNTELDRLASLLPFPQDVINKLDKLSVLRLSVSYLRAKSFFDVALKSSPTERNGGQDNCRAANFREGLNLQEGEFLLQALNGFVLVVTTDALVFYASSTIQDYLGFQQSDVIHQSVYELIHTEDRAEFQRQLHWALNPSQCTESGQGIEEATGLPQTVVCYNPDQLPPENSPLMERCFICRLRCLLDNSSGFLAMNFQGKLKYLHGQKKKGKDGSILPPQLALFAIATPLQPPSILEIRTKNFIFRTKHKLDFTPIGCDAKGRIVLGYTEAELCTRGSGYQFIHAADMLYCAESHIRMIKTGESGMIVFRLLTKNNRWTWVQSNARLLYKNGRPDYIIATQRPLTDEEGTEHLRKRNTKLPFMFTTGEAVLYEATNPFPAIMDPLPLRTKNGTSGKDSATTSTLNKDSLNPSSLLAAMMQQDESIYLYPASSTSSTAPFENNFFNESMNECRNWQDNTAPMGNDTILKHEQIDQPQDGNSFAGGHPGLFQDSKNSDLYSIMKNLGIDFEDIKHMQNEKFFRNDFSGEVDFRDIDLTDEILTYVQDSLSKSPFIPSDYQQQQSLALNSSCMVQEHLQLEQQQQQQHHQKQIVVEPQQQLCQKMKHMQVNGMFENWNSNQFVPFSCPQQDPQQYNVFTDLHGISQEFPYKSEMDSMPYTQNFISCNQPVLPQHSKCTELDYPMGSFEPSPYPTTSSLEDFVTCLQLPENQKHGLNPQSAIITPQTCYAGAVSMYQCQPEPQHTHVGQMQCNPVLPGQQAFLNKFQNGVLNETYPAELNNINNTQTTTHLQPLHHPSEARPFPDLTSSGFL

chimpanzee AHR [4] = molecular target: T2, chimpanzee AHR; assay: gel shift (EMSA) of in vitro translated AHR/ARNT, […] TCDD; type: cell-based

SMILES: Cc1c[nH]c2ccccc12 [3-MI, 3-methyl indole]
- gel shift (EMSA) of in vitro translated AHR/ARNT; HepG2 reporter [1]: 3-methyl indole, like indole was associated with enhanced binding of AHR/ARNT to its cognate response element

SMILES: c1ccc2[nH]ccc2c1 [indole]
- competition with radioiodinated photoaffinity ligand in hAHR liver cytosol; also [2]: dose-dependent decrease in PAL binding consistent with indole being a competitor and direct ligand for the human AHR
- gel shift (EMSA) of in vitro translated AHR/ARNT, 20 μM indole (chimpanzee AHR [3]): revealed chimpanzee AHR to be sensitive to both TCDD and indole-mediated activation

SMILES: Clc1cc2c(cc1Cl)Oc1cc(Cl)c(Cl)cc1O2 [TCDD]
- gel shift (EMSA) of in vitro translated AHR/ARNT, 10 nM TCDD (chimpanzee AHR [4]): revealed chimpanzee AHR to be sensitive to both TCDD and indole-mediated activation
